Consider six molecules from patent US20250346643A1, “TROPOMYOSIN KINASE RECEPTOR (TRK) LIGANDS AS THERAPEUTICS TO SUPPORT LIVER REGENERATION” (Vanderbilt University, priority 2024, published 2025).

The target in data set [1] is TRKB (tropomyosin receptor kinase B, encoded by Ntrk2) on primary mouse hepatocytes (mouse) (UniProt P15209). Put plainly: cell-based or functional assay.
A further data set concerns HepG2 cells. Put plainly: Cell proliferation assay (CellTiter-Glo) in HepG2 cells. It counts as cell-based, human. To be noted: Loxo-195 final concentration 5 nM, HepG2. How it is done:
(§1) Cell lines. Human HepG2 (ATCC HB-8065) were maintained in MEM media with 10% FBS and the mouse hepatocyte cell line AML12 (ATCC, Manassas, VA; CRL-2254) in DMEM/F12 media supplemented with dexamethasone (40 ng/ml) and Insulin-Transferrin-Selenium (Gibco, Waltham, MA; 41400045), containing 10% FBS and 1% penicillin and streptomycin. JS1 (RRID: CVCL_C7PL), LX2 (RRID: CVCL_5792, MilliporeSigma, Burlington, MA; SCC064) and TWNT4 (RRID: CVCL_W296) cells were cultured in DMEM supplemented with 10% FBS. 293T cells (ATCC, Manassas, VA; CRL-3216) were cultured in DMEM supplemented with 10% FBS.
(§2) Cell proliferation assays. Primary mouse hepatocytes, HepG2 or AML 12 cells were grown in opaque-walled 96-well plates. NTF3 (final concentration 20 ng/ml) (STEMCELL Technologies, Vancouver, Canada; cat. 78074) and/or Loxo-195 (final concentration 5 nM) (Selleckchem, Houston, TX; S8636) were added into complete growth media without L-glutamine. Primary mouse hepatocytes were also grown in serum-free William's E media without supplements. Cells were analyzed by CellTiter-Glo® (Promega G7570, Madison, WI) which detects the number of viable cells on day 0 to day 5 by on detection systems GloMax® (Promega) or Bioteck Synergy H1 (Agilent, Santa Clara, CA). Mouse recombinant HGF (Abcam, Cambridge, UK; ab281797) was added to cell culture media at a final concentration 5 ng/ml. […]

The test system of the next data set is AML12 cells. As to the kind of experiment: Cell proliferation assay (CellTiter-Glo) in AML12 cells. The settings on record: Loxo-195 final concentration 5 nM, AML12. It counts as cell-based, mouse. How it is done:
as §1, §2

Another data set concerns CCND1. As to the kind of experiment: Western blot of CCND1 in HepG2 cell lysates. The settings on record: HepG2, Loxo-195 5-10 nM added to NTF3. In kind it is cell-based, human. Here is the method:
Human HepG2 and mouse AML12 cells were grown in 6-well plates. Cells were treated with NTF3 (20 ng/ml) purchased from STEMCELL technologies, Vancouver, Canada (cat. 78074), R&D Systems, Minneapolis, MN (267-N3), Gibco, Waltham, MA (PHC7036) and/or Loxo-195 (5-10 nM) (Selleckchem, Houston, TX; S8636) in complete growth media without L-glutamine for 2 hours. Lyophilized NTF3 was solubilized with sterile filtered PBS supplemented with 0.1% BSA, aliquoted and stored at −80° C. until use. […] HepG2 and AML12 cells were collected on ice in PBS, centrifuged for 10 sec […] cell pellet homogenized in RIPA buffer containing inhibitors (Roche, Basel, Switzerland; complete Mini proteinase inhibitor, 1×HALT phosphatase inhibitors, Thermo Scientific, Waltham, MA; cat. 78428). Cell lysates were sonicated and centrifuged for 10 min at 18,800×g. Protein concentration of supernatants were determined by Direct Detect Spectrophotometer (MilliporeSigma, Burlington, MA).
For immunoblot analysis, 30-50 μg of protein diluted in LSD sample buffer (Invitrogen, Waltham, MA) were analyzed per SDS-PAGE (NuPAGE™, Invitrogen, Waltham, MA) using MOPS buffer or MES buffer (Invitrogen, Waltham, MA). Gels were stained with Coomassie (Bio-Safe Coomassie G-250 Stain, Bio-Rad, Hercules, CA) and transferred onto PVDF membranes using semi-dry blotting (Trans-Blot SD, Bio-Rad, Hercules, CA). Images were visualized on an Amersham™ Imager 680 (Cytiva, Marlborough, MA). Semi-quantitative band densitometry was performed using ImageJ software (version 1.53).

Data set [2] relates to P-TRKA Tyr674/675, P-TRKB Tyr706/707. Put plainly: Western blot of phosphorylated TRK in HepG2 cell lysates. In kind it is cell-based, human. To be noted: HepG2, Loxo-195 added to NTF3. Here is the method:
Human HepG2 and mouse AML12 cells were grown in 6-well plates. […] Lyophilized NTF3 was solubilized with sterile filtered PBS supplemented with 0.1% BSA, aliquoted and stored at −80° C. until use. […] Cell lysates were sonicated and centrifuged for 10 min at 18,800×g. Protein concentration of supernatants were determined by Direct Detect Spectrophotometer (MilliporeSigma, Burlington, MA).
For immunoblot analysis, 30-50 μg of protein diluted in LSD sample buffer (Invitrogen, Waltham, MA) were analyzed per SDS-PAGE (NuPAGE™, Invitrogen, Waltham, MA) using MOPS buffer or MES buffer (Invitrogen, Waltham, MA). Gels were stained with Coomassie (Bio-Safe Coomassie G-250 Stain, Bio-Rad, Hercules, CA) and transferred onto PVDF membranes using semi-dry blotting (Trans-Blot SD, Bio-Rad, Hercules, CA). Images were visualized on an Amersham™ Imager 680 (Cytiva, Marlborough, MA).

Data set [3] concerns the target T1, TrkB (Homo sapiens, UniProt Q16620). To be noted: read-out: Kd (agonist of TrkB); cited from earlier work.
The conditions of data set [4]: in vivo, cited from earlier work.
Data set [5] has as its target T1, TrkB. The settings on record: cited from earlier work.
Data set [6] concerns the target T1, TrkB. To be noted: read-out: IC50 for inhibition of BDNF binding to TrkB; cited from earlier work.
The next data set concerns mTORC1. Put plainly: Immunoblotting of HDOs for P-S6RP and P-P70S6K (mTORC1 activation). It counts as cell-based, human. How it is done: Human ductal organoids. The normal human liver tissue was obtained through the Cooperative Human Tissue Network (CHTN) at Vanderbilt University Medical Center. The liver was cut into very small pieces in liver digestion medium (Gibco, Waltham, MA; 17703-034). The cell suspension was filtered through a 100-μm cell strainer. The flow through was then centrifuged for 2 min at 100 g, 4° C., and the cell pellet resuspended in ice-cold DMEM (Gibco, Waltham, MA; 11885-084, supplemented by 5% FBS) and centrifuged for 2 min at 300 g. The cell pellet was gently resuspended in Matrigel® (Corning, Corning, NY; 356231) and a […] dome plated in a 24-well plate. The plate was incubated for 10-15 min at 37° C. After solidifying, complete HepatiCult™ Organoid Initiation Medium (OIM) (STEMCELL Technologies, Vancouver, Canada; 100-0384) was added. For passaging, the Matrigel dome was dissociated using TrypLE (Thermo Fisher Scientific, Waltham, MA; 12604013) and incubated at 37° C. for 5 mins. Organoids were washed by resuspending in advanced DMEM/F12 and consecutive resuspension of the organoid pellet. Organoids were resuspended at a 1:10 dilution in Matrigel® and cultured in complete HepatiCult™ Organoid Growth Medium (OGM) (STEMCELL Technologies, Vancouver, Canada; 100-0385) for organoid expansion. For hepatocytic differentiation of hepatic ductal organoids, culture medium was changed to complete HepatiCult™ Organoid Differentiation Medium (ODM) (STEMCELL Technologies, 100-0383) 4 days after passaging. Vehicle, NTF3, BDNF, HGF (20 ng/ml final concentration) or Taletrectinib (Fisher Scientific, Waltham, MA; 502030245, final concentration 10 nM) or torin2 (Fisher Scientific, Waltham, MA; s2817, final concentration 25 nM) were diluted in William's E (without L-glutamine) and added to organoids.
Immunoblotting. HDOs and mpPHH were homogenized in RIPA buffer containing proteinase inhibitors (Roche, Basel, Switzerland; cOmplete™ Mini protease inhibitor, 2 tab/10 ml buffer) and 1×HALT phosphatase inhibitors (Thermo Fisher Scientific, Waltham, MA; catalog no. 78428). Lysates were sonicated and then centrifuged for 10 min at 18,800 g. Protein concentration of supernatants was determined by Direct Detect Spectrophotometer (MilliporeSigma, Burlington, MA). HDOs were treated with growth factors as described above. Lyophilized NTF3 was solubilized with sterile-filtered PBS supplemented with 0.1% BSA, aliquoted, and stored at −80° C. until use. […] HDOs and mpPHH were collected on ice in PBS and centrifuged for 10 s, and the cell pellet was homogenized in RIPA buffer containing inhibitors (Roche, Basel, Switzerland; cOmplete™ Mini protease inhibitor, 1×HALT phosphatase inhibitors, Thermo Fisher Scientific, Waltham, MA; catalog no. 78428). Cell lysates were sonicated and centrifuged for 10 min at 18,800 g. The protein concentration of supernatants was determined by a Direct Detect® spectrophotometer (MilliporeSigma, Burlington, MA). For immunoblot analysis, 10 to 50 μg of protein diluted in […] sample buffer (Invitrogen, Waltham, MA) were analyzed per SDS-polyacrylamide gel electrophoresis (NuPAGE™, Invitrogen, Waltham, MA) using Mops buffer or MES buffer (Invitrogen, Waltham, MA). […] Semi-quantitative band densitometry was performed using ImageJ software (version 1.53).

A further data set deals with mTOR. As to the kind of experiment: Immunoblotting of mpPHH for P-S6RP and P-P70S6K (mTOR activation). The settings on record: co-incubation with Torin2. It counts as cell-based, human. Here is the method:
(§3) Mouse passaged primary human hepatocytes. Mouse-passaged primary human hepatocytes (mpPHHs) were collected as previously described (Michailidis et al., Proc Natl Acad Sci USA. 2020; 117(3): 1678-1688) and cultured in hepatocyte culture media (CC-3198, Lonza, Basel, Switzerland) in collagen-coated chamber slides. Three days before treatment, mpPHH were incubated in William's E media (with L-glutamine). […] 5-15 images per treatment per experiment were randomly taken and EdU positive nuclei quantified.
(§4) Immunoblotting. […] Protein concentration of supernatants was determined by Direct Detect Spectrophotometer (MilliporeSigma, Burlington, MA). […] The protein concentration of supernatants was determined by a Direct Detect® spectrophotometer (MilliporeSigma, Burlington, MA). For immunoblot analysis, 10 to 50 μg of protein diluted in […] sample buffer (Invitrogen, Waltham, MA) were analyzed per SDS-polyacrylamide gel electrophoresis (NuPAGE™, Invitrogen, Waltham, MA) using Mops buffer or MES buffer (Invitrogen, Waltham, MA). […] Semi-quantitative band densitometry was performed using ImageJ software (version 1.53).

For data set [7], the system named is CCND1 and PCNA. As to the kind of experiment: Immunoblotting of HDOs for CCND1 and PCNA. It counts as cell-based, human. To be noted: co-incubation with torin2. How it is done:
Human ductal organoids. The normal human liver tissue was obtained through the Cooperative Human Tissue Network (CHTN) at Vanderbilt University Medical Center. The liver was cut into very small pieces in liver digestion medium (Gibco, Waltham, MA; 17703-034). The cell suspension was filtered through a 100-μm cell strainer. The flow through was then centrifuged for 2 min at 100 g, 4° C., and the cell pellet resuspended in ice-cold DMEM (Gibco, Waltham, MA; 11885-084, supplemented by 5% FBS) and centrifuged for 2 min at 300 g. The cell pellet was gently resuspended in Matrigel® (Corning, Corning, NY; 356231) and a […] dome plated in a 24-well plate. The plate was incubated for 10-15 min at 37° C. […]
as §4

Data set [8] concerns CCND1 and PCNA. As to the kind of experiment: Immunoblotting of mpPHH for CCND1 and PCNA. In kind it is cell-based, human. The settings on record: mpPHHs, co-incubation with torin2. How it is done: as §3, §4
Another data set has as its system proliferating HSCs. The settings on record: Gfap-Tk mice, carbon tetrachloride and allyl alcohol for 10 days, co-administration of ganciclovir; cited from earlier work.

T1 sequence (Q16620 32-822, species assumed): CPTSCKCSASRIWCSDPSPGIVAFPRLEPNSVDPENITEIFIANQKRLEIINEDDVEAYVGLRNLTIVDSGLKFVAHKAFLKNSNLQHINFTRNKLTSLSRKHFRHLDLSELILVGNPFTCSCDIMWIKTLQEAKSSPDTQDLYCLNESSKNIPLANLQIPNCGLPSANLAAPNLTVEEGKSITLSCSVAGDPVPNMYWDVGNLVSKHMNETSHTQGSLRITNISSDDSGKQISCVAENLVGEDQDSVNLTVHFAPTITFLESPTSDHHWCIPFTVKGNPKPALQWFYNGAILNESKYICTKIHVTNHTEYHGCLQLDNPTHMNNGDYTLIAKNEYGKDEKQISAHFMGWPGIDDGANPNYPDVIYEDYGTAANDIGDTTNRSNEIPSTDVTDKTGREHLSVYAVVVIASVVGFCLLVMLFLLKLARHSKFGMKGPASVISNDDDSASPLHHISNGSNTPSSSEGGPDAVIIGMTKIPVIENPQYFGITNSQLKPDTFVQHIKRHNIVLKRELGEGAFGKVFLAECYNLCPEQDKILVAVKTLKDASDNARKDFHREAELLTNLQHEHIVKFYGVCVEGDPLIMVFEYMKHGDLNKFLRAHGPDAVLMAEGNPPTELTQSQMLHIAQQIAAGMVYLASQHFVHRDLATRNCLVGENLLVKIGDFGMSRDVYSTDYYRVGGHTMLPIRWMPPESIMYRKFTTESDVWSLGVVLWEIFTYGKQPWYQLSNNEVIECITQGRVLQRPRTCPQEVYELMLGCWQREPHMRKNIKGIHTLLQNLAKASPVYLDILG
TRKB (tropomyosin receptor kinase B, encoded by Ntrk2) on primary mouse hepatocytes (mouse), sequence (P15209 32-821): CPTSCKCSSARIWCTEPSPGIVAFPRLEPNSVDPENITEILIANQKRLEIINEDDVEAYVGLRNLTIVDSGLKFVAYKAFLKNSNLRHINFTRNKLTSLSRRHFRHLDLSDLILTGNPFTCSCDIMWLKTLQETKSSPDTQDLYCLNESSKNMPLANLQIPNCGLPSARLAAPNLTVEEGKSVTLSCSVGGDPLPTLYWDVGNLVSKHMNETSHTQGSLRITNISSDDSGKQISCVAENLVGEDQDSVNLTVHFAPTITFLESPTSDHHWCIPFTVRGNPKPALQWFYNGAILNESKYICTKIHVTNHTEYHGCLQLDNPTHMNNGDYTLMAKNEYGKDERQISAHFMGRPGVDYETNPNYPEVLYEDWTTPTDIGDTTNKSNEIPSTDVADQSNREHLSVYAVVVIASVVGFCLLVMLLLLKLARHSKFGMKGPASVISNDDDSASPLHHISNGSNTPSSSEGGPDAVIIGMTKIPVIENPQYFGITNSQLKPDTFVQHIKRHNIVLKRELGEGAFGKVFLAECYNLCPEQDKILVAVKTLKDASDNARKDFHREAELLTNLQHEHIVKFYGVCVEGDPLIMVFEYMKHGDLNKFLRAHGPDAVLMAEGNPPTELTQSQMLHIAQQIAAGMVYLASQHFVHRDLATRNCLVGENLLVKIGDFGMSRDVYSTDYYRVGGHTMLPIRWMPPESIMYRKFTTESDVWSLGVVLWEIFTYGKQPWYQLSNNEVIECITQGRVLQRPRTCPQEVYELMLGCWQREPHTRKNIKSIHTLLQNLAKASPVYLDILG

“recombinant neurotrophin-3 (NTF3) (from UniProt P20783 139-257) (ligand)”: in data set [1], the proliferation of primary mouse hepatocytes (CellTiter-Glo), NTF3 20 ng/ml against vehicle was found to be 1.5 fold.
On to `C[C@@H]1CCc2ncc(F)cc2[C@H]2CCCN2c2ccn3ncc(c3n2)C(=O)N1` [Loxo-195, reference compound], for which the “inhibition of NTF3-induced proliferation” value in the data set with HepG2 cells and in the data set with AML12 cells was “significantly inhibited proliferation” each time. Moreover, the “effect on NTF3-induced CCND1 abundance” value in the data set with CCND1 is on record as “inhibited”. Also, the “effect on NTF3-induced TRK phosphorylation” value in data set [2] is recorded as “decreased”.
Regarding `O=c1cc(-c2ccccc2)oc2c(O)c(O)ccc12` [7,8-DHF, 7,8-dihydroxyflavone], the Kd on TrkB [3] was ~320 nM. Further, the oral bioavailability entry in data set [4] (po) is “orally bioavailable”. Also, the blood-brain barrier penetration entry in [4] is given as “able to penetrate the blood-brain barrier”.
As to `O=C(NCCO)c1cc(C(=O)NCCO)cc(C(=O)NCCO)c1` [LM22A-4], at TrkB [5] (partial agonist of TrkB), the “intrinsic activity (IA)” value is “about 85%”. Moreover, the EC50 at TrkB [5] (read-out: EC50 for TrkB activation) was 0.2 to 0.5 nM. In addition, the half-inhibitory concentration (IC50) at TrkB [6] is 47 nM.
Turning to `Nc1ccc(-c2ccc3ncc4ccc(=O)n(-c5cccc(C(F)(F)F)c5)c4c3c2)cn1` [Torin2, reference compound], the “effect on NTF3- or insulin-induced phosphorylation of p70S6 kinase and S6RP” value with mTORC1 (HDO, co-incubation with Torin2 25 nM) was “decreased”. For the same molecule, the “phosphorylated S6rp (Ser240/244)” value in the data set on mTORC1 (HDOs cultured in glutamine free media, coincubation (FIG. 18G), Torin2 25 nM) is recorded as “decreased phosphorylated S6rp”. Moreover, the “effect on NTF3-induced P-S6RP and P-P70S6K” value with mTOR is given as “inhibited”. The “effect on NTF3-induced CCND1 and PCNA” value in the data set on CCND1 and PCNA [7] is “inhibited”; in the data set on CCND1 and PCNA [8] it was “inhibited”.
For `Nc1nc(O)c2ncn(COC(CO)CO)c2n1` [ganciclovir], the “depletion rate of proliferating HSCs” value in the data set on proliferating HSCs was “approximately 65%”.
